The text below walks through data of patent publication US20070208039A1, “Fungicidal Mixtures for Controlling Rice Pathogens” (priority 2004, published 2007).

This assay has as its system Cochliobolus miyabeanus. Description: activity against brown spot of rice caused by Cochliobolus miyabeanus, protective treatment. Type of assay: in vivo. The conditions noted are these: individual active compound, rice leaves, 6 days after inoculation. On the procedure: The active compounds, separately or jointly, were prepared as a stock solution comprising 0.25% by weight of active compound in acetone or DMSO. 1% by weight of the emulsifier Uniperol® EL (wetting agent having emulsifying and dispersing action based on ethoxylated alkylphenols) was added to this solution, and the mixture was appropriately diluted with water to the desired concentration.
Use example—activity against brown spot of rice caused by Cochliobolus miyabeanus, protective treatment Leaves of potted rice seedlings of the cultivar “Tai-Nong 67” were sprayed to runoff point with an aqueous suspension having the concentration of active compound stated below. The next day, the plants were inoculated with an aqueous spore suspension of Cochliobolus miyabeanus. The test plants were then placed in climatized chambers at 22-24° C. and 95-99% relative atmospheric humidity for six days. The extent of the development of the infection on the leaves was then determined visually.
Evaluation is carried out by determining the percentage of infected leaf areas. These percentages were converted into efficacies.
The efficacy (E) is calculated as follows using Abbot's formula: E=(1−α/β)·100 α corresponds to the fungicidal infection of the treated plants in % and β corresponds to the fungicidal infection of the untreated (control) plants in % An efficacy of 0 means that the infection level of the treated plants corresponds to that of the untreated control plants; an efficacy of 100 means that the treated plants are not infected.
The expected efficacies of mixtures of active compounds are determined using Colby's formula (Colby, R. S., Weeds, 15, 20-22, 1967) and compared with the observed efficacies.
Colby's formula: E=x+y−x·y/100 • E expected efficacy, expressed in % of the untreated control, when using the mixture of the active compounds A and B at the concentrations a and b • x efficacy, expressed in % of the untreated control, when using the active compound A at the concentration a • y efficacy, expressed in % of the untreated control, when using the active compound B at the concentration b

As to `CC1CCN(c2c(-c3c(F)cc(F)cc3F)c(Cl)nc3ncnn23)CC1` [I, 5-chloro-7-(4-methylpiperidin-1-yl)-6-(2,4,6-trifluorophenyl)-[1,2,4]tri-azolo[1,5-a]pyrimidine], the “Efficacy in % of the untreated control” value (6.25 ppm in the spray liquor) came to 56%. For the molecule `CC1CCN(c2c(-c3c(F)cccc3Cl)c(Cl)nc3ncnn23)CC1` [A], the “Efficacy in % of the untreated control” value (6.25 ppm in the spray liquor) came to 33%. Consider `CC(=O)O.CCCCCCCCCCCCNC(=N)N` [II (dodine), 1-dodecylguanidinium acetate], for which the “Efficacy in % of the untreated control” value reads like this: (6.25 ppm in the spray liquor) 0%; (25 ppm in the spray liquor) 0%. For `C[C@H](Nc1c(-c2c(F)cc(F)cc2F)c(Cl)nc2ncnn12)C(F)(F)F` [B], the “Efficacy in % of the untreated control” value (6.25 ppm in the spray liquor) worked out at 56%.
